Data as given in patent US20250188062A1, “TRIAZINE COMPOUNDS AND METHODS OF MAKING AND USING THE SAME” (Athos Therapeutics, Inc., priority 2021, published 2025).

Key:
JMJD3 = JMJD3 (Homo sapiens, UniProt O15054); test: JMJD3 binding assay (Kd, affinity beads, qPCR readout); conditions: 11-point 3-fold dilution series, 0.9% DMSO, room temperature 1 hour; read-out: JMJD3 Affinity (binding constant, Kd)
Experimental: Test compounds were prepared as 111X stocks in 100% DMSO. Kd values are determined using an 11-point 3-fold compound dilution series with three DMSO control points. All compounds for Kd measurements were distributed by acoustic transfer (non-contact dispensing) in 100% DMSO. The compounds were then diluted directly into the assays such that the final concentration of DMSO was 0.9%. All reactions were performed in polypropylene 384-well plate. Each was a final volume of 0.02 ml. The assay plates were incubated at room temperature with shaking for 1 hour and the affinity beads were washed with wash buffer (lx PBS, 0.05% Tween 20). The beads were then re-suspended in elution buffer (lx PBS, 0.05% Tween 20, 0.5 μM non-biotinylated affinity ligand) and incubated at room temperature with shaking for 30 minutes. The kinase concentration in the eluates was measured by qPCR. Binding constants are calculated with a standard dose-response curve using the Hill equation:
The Hill Slope was set to −1. Curves were fitted using a non-linear least square fit with the Levenberg-Marquardt algorithm. The binding data is summarized in Table 2 where A is less than 100 nM, B is 100 to 500 nM, and C is greater than 500 nM.

THP-1 human monocytes [1] = test: TNF-alpha ELISA (Quantikine) in LPS-treated THP-1 cells; type: cell-based; conditions: 1 μM, 4 hrs before LPS 50 ng/ml; PMA 25 nM; ELISA of supernatants; FIG. 4A-C, p<0.05 / p<0.01
Experimental: THP-1 cells were grown to confluence and plated in 6-well plates. PMA (25 nM) was added to the medium and replaced with non-PMA containing medium 24 hrs later. ATH compounds (1 μM) or vehicle (0.1% DMSO) were added and allowed to incubate. After 4 hrs LPS (50 ng/ml) was added without replacement of the medium and supernatants were collected after 4 and […]. Media were placed on ice for cytokine detection using ELISA (Quantikine, R&D Systems).
JMJD3 inhibitors Compound 89, Compound 91 (FIG. 4A, p<005), Compound 97, Compound 92, Compound 93 (FIG. 4B, p<0.01), and Compound 94 (FIG. 4C, p<0.01) show suppression of TNF-alpha (TNFA) expression after LPS (lipopolysaccharide) treatment, in THP-1 human monocytes (FIG. 4A-C, p<0.05 for both).

THP-1 human monocytes [2] = test: Cellular assay for anti-inflammatory properties: cytokine ELISA multiplex in LPS-stimulated PMA-differentiated THP-1 macrophages; type: cell-based; conditions: 1 μM, 4 hours before 100 ng/mL LPS for 4 or 24 hours; cytokine protein in media vs LPS+PMA only
Experimental: The anti-inflammatory properties of five JMJD3 inhibitors (99, 92, 93, 98, and 95, in no particularly order) were evaluated in an immune cellular assay targeting key pro-inflammatory cytokines involved in the pathogenesis of multiple autoimmune disease.
Specifically, THP-1 human monocytes were grown in 6-well plates (RPMI 1640+10% FBS+1% P/S). After washing with PBS the THP-1 cells were differentiated into macrophages using 20 nM of phorbol 12-myristate 13-acetate (PMA) for 24 hrs. 99, 92, 93, 98, and 95) (1 μM) were added into the macrophages, which are incubated for 4 hours before the addition of 100 ng/mL lipopolysaccharide (LPS) for either 4 or 24 hours. Next, the macrophages are collected via centrifugation at 1.2K rpm for 5 min and use their media to evaluate cytokine protein levels by using the Bio-rad Cytokine ELISA multiplex assay (cat. No M5000031YV). The supernatants from macrophages treated only with only LPS+PMA were collected and used as negative controls.

Naïve CD4+ T human cells = test: Cellular assay for FoxP3 induction activity (qPCR of FoxP3 mRNA); type: cell-based; conditions: CD4+ T cells activated with anti-CD3, IL-2 and TGF-β for 5 days; FoxP3 mRNA by qPCR on day 5; FIG. 3
Experimental: CD4+CD25+FOXP3+ regulatory T cells (Tregs) suppress pro-inflammatory cells and signals and are critical mediators of tolerance, inhibiting excessive inflammation and autoimmunity. Also, treatment of CD4+ T cells with interleukin 2 (IL-2) and transforming growth factor beta (TGF-β) signaling are important for FOXP3 induction and Treg formation.
Naïve CD4+ T human cells (cat. no 2W-200, Lonza) were cultured and activated with artificial antigen-presenting cells and soluble anti-CD3 (100 ng/ml) in the presence of IL-2 (300 U/ml) and TGF-β (10 ng/ml) for 5 days. On day 3, cells were transfected with an anti-sense RNA against JMJD3 (cat. No 1299001, Thermo) using Lipofectamine 2000 (cat. No 11668027, Thermo). On day 5, RNA was extracted and qPCR analysis was performed to evaluate FoxP3 mRNA levels by using the following primers: F: 5′-TCCACAACATGCGACCCCCTTTCA-3′ and R: 5′-ACAGCCCCCTTCTCGCTCTCCA-3′ having a 217 bp product. All JMJD3 inhibitors (99, 92, 93, 98, and 95) in CD4+ T cells induced 7-fold FoxP3 expression levels, thus moving towards differentiation and formation of Tregs. […] Thus, genetic or pharmacological inhibition of […] will result into FoxP3 activation and induction of Treg formation. Based on this evidence, JMJD3 inhibitors (99, 92, 93, 98, and 95)) could be used in autoimmune diseases where T-regulatory cells have therapeutic potential. There is increasing evidence and literature derived from human clinical studies (Arellano B et al., Regulatory T Cell-based Therapies for Autoimmunity, Discov Med, 22:73-80, 2016).

JMJD3, sequence (O15054 whole entry, species assumed): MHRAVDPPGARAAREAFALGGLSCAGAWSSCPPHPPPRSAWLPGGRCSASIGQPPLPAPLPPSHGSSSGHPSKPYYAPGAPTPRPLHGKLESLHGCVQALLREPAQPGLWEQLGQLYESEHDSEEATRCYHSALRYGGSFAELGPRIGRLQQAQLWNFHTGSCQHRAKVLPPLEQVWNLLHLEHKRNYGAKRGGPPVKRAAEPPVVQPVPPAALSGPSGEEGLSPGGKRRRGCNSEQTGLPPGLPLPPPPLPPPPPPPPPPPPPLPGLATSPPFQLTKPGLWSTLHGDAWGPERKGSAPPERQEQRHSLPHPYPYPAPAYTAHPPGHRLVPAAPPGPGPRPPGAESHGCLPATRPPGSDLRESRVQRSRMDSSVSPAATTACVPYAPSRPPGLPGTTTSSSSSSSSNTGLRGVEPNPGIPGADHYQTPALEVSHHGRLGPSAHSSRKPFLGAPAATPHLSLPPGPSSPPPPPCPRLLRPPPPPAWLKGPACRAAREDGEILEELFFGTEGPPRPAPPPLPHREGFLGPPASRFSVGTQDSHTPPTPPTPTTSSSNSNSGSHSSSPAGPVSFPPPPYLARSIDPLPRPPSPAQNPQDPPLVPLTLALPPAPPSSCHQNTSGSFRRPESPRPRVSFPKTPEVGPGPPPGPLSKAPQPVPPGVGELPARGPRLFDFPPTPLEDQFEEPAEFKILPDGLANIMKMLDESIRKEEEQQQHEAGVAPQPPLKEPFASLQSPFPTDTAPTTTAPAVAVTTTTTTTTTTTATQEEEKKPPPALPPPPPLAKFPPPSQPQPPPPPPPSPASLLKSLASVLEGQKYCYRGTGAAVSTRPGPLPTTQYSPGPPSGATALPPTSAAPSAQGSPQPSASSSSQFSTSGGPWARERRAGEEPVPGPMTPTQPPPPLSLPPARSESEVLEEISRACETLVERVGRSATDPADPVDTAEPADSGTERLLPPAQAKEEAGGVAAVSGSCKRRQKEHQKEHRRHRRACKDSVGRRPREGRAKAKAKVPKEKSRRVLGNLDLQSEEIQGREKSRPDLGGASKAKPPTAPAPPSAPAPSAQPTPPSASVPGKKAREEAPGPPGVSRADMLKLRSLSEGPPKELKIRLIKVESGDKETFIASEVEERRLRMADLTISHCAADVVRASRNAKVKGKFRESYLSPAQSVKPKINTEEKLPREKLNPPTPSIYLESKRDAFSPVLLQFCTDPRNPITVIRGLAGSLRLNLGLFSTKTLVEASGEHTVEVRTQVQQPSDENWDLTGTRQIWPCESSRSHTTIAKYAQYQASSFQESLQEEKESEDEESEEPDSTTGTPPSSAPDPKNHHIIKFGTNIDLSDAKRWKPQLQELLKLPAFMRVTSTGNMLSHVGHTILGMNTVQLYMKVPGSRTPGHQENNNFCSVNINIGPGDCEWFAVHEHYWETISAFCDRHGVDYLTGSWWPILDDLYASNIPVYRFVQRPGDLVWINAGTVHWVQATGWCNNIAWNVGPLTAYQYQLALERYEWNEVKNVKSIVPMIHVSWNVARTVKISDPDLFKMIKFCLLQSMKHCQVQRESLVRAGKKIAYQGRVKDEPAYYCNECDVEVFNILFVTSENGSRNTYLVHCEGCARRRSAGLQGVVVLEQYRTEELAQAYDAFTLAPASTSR

CCOC(=O)CCNc1nc(N2CCc3ccccc3CC2)nc(-n2cccn2)n1 [Compound 1, Ethyl 3-((4-(1H-pyrazol-1-yl)-6-(1,2,4,5-tetrahydro-3H-benzo[d]azepin-3-yl)-1,3,5-triazin-2-yl)amino)propanoate]
Kd (JMJD3): < 100 nM

CCOC(=O)CCNc1nc(-n2cccn2)nc(-n2cccn2)n1 [Compound 2, Ethyl 3-((4,6-di(1H-pyrazol-1-yl)-1,3,5-triazin-2-yl)amino)propanoate]
Kd (JMJD3): 100 to 500 nM

CCOC(=O)CCNc1nc(-n2cccn2)nc(-n2ccc3ccccc32)n1 [Compound 6, Ethyl 3-((4-(1H-indol-1-yl)-6-(1H-pyrazol-1-yl)-1,3,5-triazin-2-yl)amino)propanoate]
Kd (JMJD3): < 100 nM

CCOC(=O)CCNc1nc(-c2cc(F)cc(F)c2)nc(-n2cccn2)n1 [Compound 8, Ethyl 3-((4-(3,5-difluorophenyl)-6-(1H-pyrazol-1-yl)-1,3,5-triazin-2-yl)amino)propanoate]
Kd (JMJD3): < 100 nM

c1ccc2c(c1)ccn2-c1nc(N2CCNC3(COC3)C2)nc(-n2cccn2)n1 [Compound 60, 8-(4-(1H-Indol-1-yl)-6-(1H-pyrazol-1-yl)-1,3,5-triazin-2-yl)-2-oxa-5,8-diazaspiro[3.5]nonane]
Kd (JMJD3): < 100 nM

CN1CCN(c2nc(-c3cc(F)cc(F)c3)nc(-n3cccn3)n2)CC1 [Compound 80, 2-(3,5-Difluorophenyl)-4-(4-methylpiperazin-1-yl)-6-(1H-pyrazol-1-yl)-1,3,5-triazine]
Kd (JMJD3): 100 to 500 nM

COCCNc1nc(-n2cccn2)nc(-n2ccc3ccccc32)n1 [Compound 89, 4-(1H-indol-1-yl)-N-(2-methoxyethyl)-6-(1H-pyrazol-1-yl)-1,3,5-triazin-2-amine]
suppression of TNF-alpha (TNFA) expression after LPS treatment (THP-1 human monocytes [1]): suppression
Kd (JMJD3): < 100 nM

c1ccc2c(c1)ccn2-c1nc(N2CCNCC2)nc(-n2cccn2)n1 [Compound 90, 1-(4-(Piperazin-1-yl)-6-(1H-pyrazol-1-yl)-1,3,5-triazin-2-yl)-1H-indole]
Kd (JMJD3): 100 to 500 nM

NC(=O)CCNc1nc(-n2cccn2)nc(-n2ccc3ccccc32)n1 [Compound 91, 3-((4-(1H-Indol-1-yl)-6-(1H-pyrazol-1-yl)-1,3,5-triazin-2-yl)amino)propanamide]
suppression of TNF-alpha (TNFA) expression after LPS treatment (THP-1 human monocytes [1]): suppression
Kd (JMJD3): 100 to 500 nM

Fc1cc(F)cc(-c2nc(N3CCOCC3)nc(-n3cccn3)n2)c1 [Compound 92, 4-(4-(3,5-Difluorophenyl)-6-(1H-pyrazol-1-yl)-1,3,5-triazin-2-yl)morpholine]
suppression of TNF-alpha (TNFA) expression after LPS treatment (THP-1 human monocytes [1]): suppression
suppression of TNF-alpha (TNFA) (THP-1 human monocytes [2]): suppression
suppression of interleukin 1beta (IL1B) (THP-1 human monocytes [2]): suppression
suppression of interleukin 5 (IL5) (THP-1 human monocytes [2]): suppression
suppression of interleukin 6 (IL6) (THP-1 human monocytes [2]): suppression
suppression of interleukin 8 (IL8) (THP-1 human monocytes [2]): suppression
suppression of interleukin 13 (IL13) (THP-1 human monocytes [2]): suppression
Kd (JMJD3): 100 to 500 nM
FoxP3 expression levels (induction) (Naïve CD4+ T human cells): 7 fold

Fc1cc(F)cc(-c2nc(N3CCC3)nc(-n3cccn3)n2)c1 [Compound 93, 2-(Azetidin-1-yl)-4-(3,5-difluorophenyl)-6-(1H-pyrazol-1-yl)-1,3,5-triazine]
suppression of TNF-alpha (TNFA) expression after LPS treatment (THP-1 human monocytes [1]): suppression
suppression of TNF-alpha (TNFA) (THP-1 human monocytes [2]): suppression
suppression of interleukin 1beta (IL1B) (THP-1 human monocytes [2]): suppression
suppression of interleukin 5 (IL5) (THP-1 human monocytes [2]): suppression
suppression of interleukin 6 (IL6) (THP-1 human monocytes [2]): suppression
suppression of interleukin 8 (IL8) (THP-1 human monocytes [2]): suppression
suppression of interleukin 13 (IL13) (THP-1 human monocytes [2]): suppression
Kd (JMJD3): < 100 nM
FoxP3 expression levels (induction) (Naïve CD4+ T human cells): 7 fold

c1ccc2c(c1)ccn2-c1nc(N2CCOCC2)nc(-n2cccn2)n1 [Compound 94, 4-(4-(1H-Indol-1-yl)-6-(1H-pyrazol-1-yl)-1,3,5-triazin-2-yl)morpholine]
suppression of TNF-alpha (TNFA) expression after LPS treatment (THP-1 human monocytes [1]): suppression
Kd (JMJD3): 100 to 500 nM

NC(=O)CCNc1nc(-c2cc(F)cc(F)c2)nc(-n2cccn2)n1 [Compound 96, 3-((4-(3,5-Difluorophenyl)-6-(1H-pyrazol-1-yl)-1,3,5-triazin-2-yl)amino)propanamide]
Kd (JMJD3): 100 to 500 nM

COCCCNc1nc(-n2cccn2)nc(-n2ccc3ccccc32)n1 [Compound 97, 4-(1H-Indol-1-yl)-N-(3-methoxypropyl)-6-(1H-pyrazol-1-yl)-1,3,5-triazin-2-amine]
suppression of TNF-alpha (TNFA) expression after LPS treatment (THP-1 human monocytes [1]): suppression
Kd (JMJD3): 100 to 500 nM

COCNc1nc(-n2cccn2)nc(-n2ccc3ccccc32)n1 [Compound 98, 4-(1H-indol-1-yl)-N-(methoxymethyl)-6-(1H-pyrazol-1-yl)-1,3,5-triazin-2-amine]
suppression of TNF-alpha (TNFA) (THP-1 human monocytes [2]): suppression
suppression of interleukin 1beta (IL1B) (THP-1 human monocytes [2]): suppression
suppression of interleukin 5 (IL5) (THP-1 human monocytes [2]): suppression
suppression of interleukin 6 (IL6) (THP-1 human monocytes [2]): suppression
suppression of interleukin 8 (IL8) (THP-1 human monocytes [2]): suppression
suppression of interleukin 13 (IL13) (THP-1 human monocytes [2]): suppression
FoxP3 expression levels (induction) (Naïve CD4+ T human cells): 7 fold

Fc1cc(F)cc(-c2nc(N3CCNCC3)nc(-n3cccn3)n2)c1 [Compound 99, 2-(3,5-difluorophenyl)-4-(piperazin-1-yl)-6-(1H-pyrazol-1-yl)-1,3,5-triazine]
suppression of TNF-alpha (TNFA) (THP-1 human monocytes [2]): suppression
suppression of interleukin 1beta (IL1B) (THP-1 human monocytes [2]): suppression
suppression of interleukin 5 (IL5) (THP-1 human monocytes [2]): suppression
suppression of interleukin 6 (IL6) (THP-1 human monocytes [2]): suppression
suppression of interleukin 8 (IL8) (THP-1 human monocytes [2]): suppression
suppression of interleukin 13 (IL13) (THP-1 human monocytes [2]): suppression
FoxP3 expression levels (induction) (Naïve CD4+ T human cells): 7 fold
